Experimental data taken from publication PMC4728661, “Cancer Prevention and Health Benefices of Traditionally Consumed Borago officinalis Plants” (Nutrients, 2016).
Marks after values point to notes of the source that are not given here.

How the values were obtained:
D. melanogaster [1] = test: Toxicity: survival of Drosophila larvae to emerged adults, simple and combined (H2O2) treatments; format: in vivo, Drosophila melanogaster; details: H2O2 0.12 M alone (positive control)
Protocol: Optimal fertile flies were anesthetized under CO2 narcotisation for cross selection and then placed in new vials for fertilization. After that, hybrid eggs from crossing were collected over an 8 h period and emerged larvae (72 ± 4 h later) were cleaned up for a few seconds in sterile distilled water to remove feeding medium rests. […] Bioactive compound concentrations were chosen on the basis of their known content in B. officinalis species. […] Larvae were fed on these media until pupation (about 48 h). After emergence, resulting adult flies were sacrificed under CO2 narcotisation and stored in a 70% ethanol solution in sterile water. […] The determination of Toxicity (T) of treatments in D. melanogaster was performed following this formula [39]: T = (N° of emerging individuals in treatment/N° of emerging individuals in the negative control) × 100(1) Differences in D. melanogaster survival between treatments at each concentration with respect to negative control were analyzed with a Chi-square test. This procedure was also performed for the analysis of each simple treatment with their correspondent combined treatment.

D. melanogaster [2] = test: Genotoxicity: Somatic Mutation and Recombination Test (SMART), wing spot test, simple treatments; format: in vivo, Drosophila melanogaster; details: H2O2 0.12 M alone (positive control); on Diagnosis, Small Single Spots 1–2 Cells m = 2: key: + (positive); − (negative); on Diagnosis, Total Spots m = 2: key: + (positive); − (negative)
Protocol: The D. melanogaster system was selected for the determination of the safety of B. officinalis consumption as a well-recognized method to analyze vegetable complex mixtures using SMART [31, 32]. This test was used in order to evaluate the genotoxic and antigenotoxic activity of B. officinalis leaves and petioles as well as their selected bioactive compounds [33]. This activity was measured by direct visualization of the occurrence of recessive mutations in the wing hairs of two different D. melanogaster strains. Flies from experiments carried these visible wing genetic markers: the flare (flr) strain flr^3/ln (3LR) TM3, Bd^s and the multiple wing-hair (mwh) strain mwh/mwh. The marker flare (flr^3, 3_38.3) produces individual malformed hairs and the marker multiple wing hairs (mwh, 3_0.3) produces multiple hairs per cell. Larvae used in treatments come from two types of crosses: the standard cross with flr^3/TM3, Bd^S females mated to mwh/mwh males and the reciprocal cross.
Optimal fertile flies were anesthetized under CO2 narcotisation for cross selection and then placed in new vials for fertilization. After that, hybrid eggs from crossing were collected over an 8 h period and emerged larvae (72 ± 4 h later) were cleaned up for a few seconds in sterile distilled water to remove feeding medium rests. For genotoxicity analysis (simple treatments), groups of 100 larvae were transferred into vials containing 0.85 g of Drosophila Instant Medium (Formula 4–24, Carolina Biological Supply, Burlington, NC, USA) wetted with 4 mL of a mixture of distilled water and increasing concentrations of samples: B. officinalis BF and WF (1.25, 2.5, and 5 mg·mL^−1), RO (0.35, 0.7, 1.39 and 2.78 mM), SY (0.16, 0.32, 0.63 and 1.26 mM), SI (0.15, 0.29, 0.58 and 1.16 mM) and the mixture of these three bioactive compounds at each concentration assayed individually. Bioactive compound concentrations were chosen on the basis of their known content in B. officinalis species. […] Larvae were fed on these media until pupation (about 48 h). After emergence, resulting adult flies were sacrificed under CO2 narcotisation and stored in a 70% ethanol solution in sterile water. Emerged adults were counted for toxicity evaluation and transheterozygous wings (mwh flr^+/mwh^+ flr^3) were mounted on microscope slides and wing hair mutations (spots) scored, using a photonic microscope (Nikon) at 400× magnification for genotoxicity and antigenotoxicity evaluation.
For the evaluation of genotoxic effects, the frequencies of spots per fly of each treated series were compared to the concurrent negative control for each class of mutational clone as well as between simple and combined treatments for the same concentration comparisons. […] A multiple-decision procedure was used to categorize results as positive, inconclusive or negative. Inconclusive and positive results were evaluated by the non-parametric U test of Mann, Whitney and Wilcoxon. The inhibition percentage (IP) of genotoxicity was calculated from the total frequencies of spots per wing, following this formula [42]: IP = (genotoxin alone − sample + genotoxin) × 100/(genotoxin alone)(2)

OO [H2O2, hydrogen peroxide, reference compound]
Survival (D. melanogaster [1]): 37.87 * % | Diagnosis, Small Single Spots 1–2 Cells m = 2 (D. melanogaster [2]): + | Diagnosis, Total Spots m = 2 (D. melanogaster [2]): + | Mutation rate, Large Single Spots >2 Cells m = 5 (D. melanogaster [2]): 0.07 (11) spots/wing | Mutation rate, Small Single Spots 1–2 Cells m = 2 (D. melanogaster [2]): 0.60 (94) spots/wing | Mutation rate, Total Spots m = 2 (D. melanogaster [2]): 0.65 (109) spots/wing | Mutation rate, Twin Spots m = 5 (D. melanogaster [2]): 0.06 (4) spots/wing
